Measurements as given in PMC4306533, “Distinct Features of Cap Binding by eIF4E1b Proteins” (Journal of Molecular Biology, 2015).

What was measured:
heIF4E1a [1] = molecular target: T1, heIF4E1a (Homo sapiens, UniProt P06730); parameters: method as in PMID 17369309; settings: equilibrium association constant; buffer without glycerol; footnote b; cited from earlier work
T1 construct: made in house; host or cells: E. coli Rosetta2(DE3)

[2] = molecular target: T2, X4E1a4 (E101S/K102R/S195A/M82S) (Xenopus laevis, UniProt P48597, E101S/K102R/M82S/S195A); assay: fluorescence titration, XeIF4E1a mutant; assay type: binding; settings: mutant (E101S/K102R/S195A/M82S) of XeIF4E1a
T2 construct: made in house; host or cells: E. coli Rosetta2(DE3)
From the text: (§1) We tested the effect on cap-binding activity of these positions in the fluorescence assay with six mutated recombinant versions of Xenopus eIF4E1a (Fig. S4). The amino acids were introduced in XeIF4E1a sequentially in the order: E101S/K102R/S195A/M82S/T206L/T207S (numbering of the XeIF4E1a sequence is shifted backward by 4 amino acids relative to XeIF4E1b). […] The biggest contribution to the weaker cap binding of XeIF4E1a, in each case about 20%, resulted from changing Glu101 to Ser and Thr206 to Leu coupled with Thr207 to Ser, with the remaining mutations having only minor effects. […] Glu101 is a solvent-accessible amino acid and is proximal to Trp98 in the S3-S4 loop. […] Attenuation of the cap-binding affinity of XeIF4E1a resulting from mutating Thr206 and Thr207 is consistent with our results mentioned above showing significant influence of C-terminal loop residues on binding phosphate and the second nucleotide.
(§2) For human eIF4E1a and eIF4E1b and also for Xenopus eIF4E1a and its mutated forms, measurements were carried out using 0.1 μM protein in 50 mM Hepes/KOH (pH 7.2), 134.5 mM KCl, 0.5 mM EDTA and 1 mM DTT. For Xenopus eIF4E1b(ΔN27), the concentration was 0.2 μM and glycerol was added to the buffer to 10% (v/v) final concentration. […] The gradually increasing concentration of cap analogue quenches protein fluorescence without shifting the spectrum maximum, while at high concentrations, the fluorescence signal of free cap analogue dominates over the fluorescence from other solution components including free eIF4E and eIF4E in complex with cap (Fig. S2a). Fluorescence of measured samples was excited at 280 nm (2.5 nm bandwidth) and detected at 337 nm or 330 nm (4 nm bandwidth), thus reducing the signal originated from the free cap analogues. Measurements were carried out on a LS-55 spectrofluorometer (Perkin Elmer Co.) using freshly prepared proteins, and the fluorescence intensities were corrected for sample dilution and the inner filter effect.
(§3) Equilibrium association constants (Kas) were determined by fitting the theoretical dependence of fluorescence intensity on the total concentration of the cap analogue to the experimental data points, according to the equation described previously (see Ref. [22] and Fig. S2c). […] Along with Kas and the concentration of the active protein [P0^act], other parameters such as fL and ∆f = fPact − fPL are also gained from the fit, where fL represents the fluorescence efficiency of free cap analogue and ∆f represents the difference between the fluorescence efficiencies of the apo-protein and the complex (Fig. S2c).
(§4) The final Kas was calculated as a weighted average of 2–6 independent titrations with the weights taken as the reciprocal of the numerical standard deviation squared. Numerical, nonlinear least-squares regression analysis was performed using Origin 6.0 (Microcal Software Inc.). Obtained association constants were used to determine the Gibbs free energy according to the standard equation ΔG° = − RTlnKas.

X4E1a1 (E101S) = molecular target: T3, X4E1a1 (E101S) (Xenopus laevis, UniProt P48597, E101S); assay: fluorescence titration, XeIF4E1a mutant; assay type: binding; settings: mutant (E101S) of XeIF4E1a
T3 construct: made in house; host or cells: E. coli Rosetta2(DE3)
From the text: as §1, §2, §3, §4

X4E1a1’ (K102R) = molecular target: T4, X4E1a1’ (K102R) (Xenopus laevis, UniProt P48597, K102R); assay: fluorescence titration, XeIF4E1a mutant; assay type: binding; settings: mutant (K102R) of XeIF4E1a
T4 construct: made in house; host or cells: E. coli Rosetta2(DE3)
From the text: as §1, §2, §3, §4

[3] = molecular target: T5, X4E1a3 (E101S/K102R/S195A) (Xenopus laevis, UniProt P48597, E101S/K102R/S195A); assay: fluorescence titration, XeIF4E1a mutant; assay type: binding; settings: mutant (E101S/K102R/S195A) of XeIF4E1a
T5 construct: made in house; host or cells: E. coli Rosetta2(DE3)
From the text: as §1, §2, §3, §4

X4E1a2 (E101S/K102R) = molecular target: T6, X4E1a2 (E101S/K102R) (Xenopus laevis, UniProt P48597, E101S/K102R); assay: fluorescence titration, XeIF4E1a mutant; assay type: binding; settings: mutant (E101S/K102R) of XeIF4E1a
T6 construct: made in house; host or cells: E. coli Rosetta2(DE3)
From the text: as §1, §2, §3, §4

[4] = molecular target: T7, X4E1a6 (E101S/K102R/S195A/M82S/T206L/T207S) (Xenopus laevis, UniProt P48597, E101S/K102R/M82S/S195A/T206L/T207S); assay: fluorescence titration, XeIF4E1a mutant; assay type: binding; settings: mutant (E101S/K102R/S195A/M82S/T206L/T207S) of XeIF4E1a
T7 construct: made in house; host or cells: E. coli Rosetta2(DE3)
From the text: as §1, §2, §3, §4

heIF4E1b [5] = molecular target: T8, heIF4E1b (Homo sapiens, UniProt A6NMX2); assay: time-synchronized fluorescence titration of cap analogue binding; settings: for Kas − glycerol heIF4E1b: equilibrium association constant, buffer without glycerol
T8 construct: made in house; host or cells: E. coli Rosetta2(DE3)
T8 sequence (A6NMX2 1-242): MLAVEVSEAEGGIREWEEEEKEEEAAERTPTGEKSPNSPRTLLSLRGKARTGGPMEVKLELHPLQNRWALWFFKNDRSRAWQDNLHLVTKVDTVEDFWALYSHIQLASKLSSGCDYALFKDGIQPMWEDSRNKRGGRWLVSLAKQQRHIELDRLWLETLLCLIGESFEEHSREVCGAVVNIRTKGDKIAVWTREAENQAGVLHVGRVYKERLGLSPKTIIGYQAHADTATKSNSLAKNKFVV
From the text: (§5) The time-synchronized fluorescence titration method, widely used to determine the affinity constants of cap–eIF4E complexes [[20,22–26]], measures the quenching of the intrinsic fluorescence of tryptophan residues due to cap binding (Fig. S2). Knowledge of the equilibrium association constant Kas enables the calculation of the free-energy changes involved in the interaction between eIF4E and ligand, according to the standard equation ΔG° = − RTlnKas.
(§6) For human eIF4E1a and eIF4E1b and also for Xenopus eIF4E1a and its mutated forms, measurements were carried out using 0.1 μM protein in 50 mM Hepes/KOH (pH 7.2), 134.5 mM KCl, 0.5 mM EDTA and 1 mM DTT. For Xenopus eIF4E1b(ΔN27), the concentration was 0.2 μM and glycerol was added to the buffer to 10% (v/v) final concentration. […] Fluorescence of measured samples was excited at 280 nm (2.5 nm bandwidth) and detected at 337 nm or 330 nm (4 nm bandwidth), thus reducing the signal originated from the free cap analogues. Measurements were carried out on a LS-55 spectrofluorometer (Perkin Elmer Co.) using freshly prepared proteins, and the fluorescence intensities were corrected for sample dilution and the inner filter effect.
(§7) Equilibrium association constants (Kas) were determined by fitting the theoretical dependence of fluorescence intensity on the total concentration of the cap analogue to the experimental data points, according to the equation described previously (see Ref. [22] and Fig. S2c).
as §4

heIF4E1b [6] = assay: as above; parameters: species or system human; settings: for Ratio Kas (h4E1a) to Kas (h4E1b): without glycerol
From the text: as §5, §6, §7, §4

heIF4E1a [7] = molecular target: T1, heIF4E1a; assay: as above; settings: change relative to m^7GTP; without glycerol
From the text: as §5, §6, §7, §4

XeIF4E1a [8] = molecular target: T9, XeIF4E1a (Xenopus laevis, UniProt P48597); assay: as above; settings: for Kas + glycerol XeIF4E1a / Kas − glycerol XeIF4E1a: equilibrium association constant; for Kas − glycerol XeIF4E1a: buffer without glycerol
T9 construct: made in house; host or cells: E. coli Rosetta2(DE3)
From the text: as §5, §6, §7, §4

XeIF4E1a [9] = assay: as above; parameters: species or system Xenopus laevis; settings: without glycerol
From the text: as §5, §6, §7, §4

XeIF4E1bΔN27 = assay: as above; parameters: species or system Xenopus laevis; settings: 10% glycerol
From the text: as §5, §6, §7, §4

in vitro translation = test system: in vitro translation; parameters: method as in PMID 10387101; settings: Cai et al.; read-out: IC50 (inhibitory potency); cited from earlier work
[10] = change relative to m^7GTP, without glycerol

T1 sequence (P06730 whole entry): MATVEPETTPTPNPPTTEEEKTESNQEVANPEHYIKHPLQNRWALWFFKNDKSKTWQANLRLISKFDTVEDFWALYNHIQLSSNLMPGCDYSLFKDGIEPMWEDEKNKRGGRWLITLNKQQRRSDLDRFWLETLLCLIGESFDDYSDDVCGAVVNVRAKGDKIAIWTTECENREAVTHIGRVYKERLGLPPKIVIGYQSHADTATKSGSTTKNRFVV
T9 sequence (P48597 whole entry): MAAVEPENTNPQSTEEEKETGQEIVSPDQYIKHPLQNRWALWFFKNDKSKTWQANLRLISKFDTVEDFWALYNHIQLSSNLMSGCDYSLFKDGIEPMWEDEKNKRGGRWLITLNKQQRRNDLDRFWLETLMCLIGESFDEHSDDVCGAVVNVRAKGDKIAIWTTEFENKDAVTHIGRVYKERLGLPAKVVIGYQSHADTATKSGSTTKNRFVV
T5 sequence (P48597 whole entry E101S/K102R/S195A): as the sequence (P48597 whole entry) above, with E101S, K102R, S195A counted along it
T3 sequence (P48597 whole entry E101S): as the sequence (P48597 whole entry) above, with E101S counted along it
T6 sequence (P48597 whole entry E101S/K102R): as the sequence (P48597 whole entry) above, with E101S, K102R counted along it
T4 sequence (P48597 whole entry K102R): as the sequence (P48597 whole entry) above, with K102R counted along it
T2 sequence (P48597 whole entry M82S/E101S/K102R/S195A): as the sequence (P48597 whole entry) above, with M82S, E101S, K102R, S195A counted along it
T7 sequence (P48597 whole entry M82S/E101S/K102R/S195A/T206L/T207S): as the sequence (P48597 whole entry) above, with M82S, E101S, K102R, S195A, T206L, T207S counted along it

Cn1c[n+]([C@@H]2O[C@H](COP(=O)(O)OP(=O)([O-])OP(=O)(O)OC[C@H]3O[C@@H](n4cnc5c(=O)[nH]c(N)nc54)[C@H](O)[C@@H]3O)[C@@H](O)[C@H]2O)c2nc(N)[nH]c(=O)c21 [m^7GpppG]
Kas − glycerol heIF4E1a (heIF4E1a [1]): 5.94 ± 0.39 ^b μM^− 1 | Kas X4E1a4 [2]: 2.87 ± 0.11 µM⁻¹ | Kas X4E1a1 (X4E1a1 (E101S)): 3.38 ± 0.16 µM⁻¹ | Kas X4E1a1’ (X4E1a1’ (K102R)): 3.341 ± 0.090 µM⁻¹ | Kas X4E1a3 [3]: 2.417 ± 0.051 µM⁻¹ | Kas X4E1a2 (X4E1a2 (E101S/K102R)): 2.81 ± 0.10 µM⁻¹ | Kas X4E1a6 [4]: 2.54 ± 0.15 µM⁻¹ | ΔΔG^o − glycerol heIF4E1b (heIF4E1b [5]; [10]): 1.065 ± 0.040 kcal/mol | Kas − glycerol heIF4E1b (heIF4E1b [5]): 3.53 ± 0.11 μM^− 1 | Ratio Kas (h4E1a) to Kas (h4E1b) (heIF4E1b [6]): 1.68 | ΔΔG^o − glycerol heIF4E1a (heIF4E1a [7]): 1.423 ± 0.058 kcal/mol | ΔΔG^o + glycerol XeIF4E1a (XeIF4E1a [8]; change relative to m^7GTP, 10% glycerol): 1.351 ± 0.028 kcal/mol | ΔΔG^o − glycerol XeIF4E1a (XeIF4E1a [8]; [10]): 1.382 ± 0.032 kcal/mol | Kas + glycerol XeIF4E1a (XeIF4E1a [8]; 10% glycerol): 2.291 ± 0.065 μM^− 1 | Kas − glycerol XeIF4E1a (XeIF4E1a [8]): 3.98 ± 0.11 μM^− 1 | Ratio Kas (h4E1a) to Kas (X4E1a) (XeIF4E1a [9]): 1.49 | Ratio Kas (X4E1a) to Kas (X4E1bΔN27) (XeIF4E1bΔN27): 2.59 | ΔΔG^o + glycerol XeIF4E1bΔN27 (XeIF4E1bΔN27; change relative to m^7GTP): 1.268 ± 0.037 kcal/mol | Kas + glycerol XeIF4E1bΔN27 (XeIF4E1bΔN27; equilibrium association constant): 0.883 ± 0.032 μM^− 1

Nc1nc2c(ncn2[C@@H]2O[C@H](COP(=O)(O)OP(=O)(O)OP(=O)(O)O)[C@@H](O)[C@H]2O)c(=O)[nH]1 [GTP, reference compound]
Kas − glycerol heIF4E1a (heIF4E1a [1]): 0.027 ± 0.001 ^b μM^− 1 | Kas − glycerol heIF4E1b (heIF4E1b [5]): 0.159 ± 0.040 μM^− 1 | fold higher affinity of human eIF4E1b than eIF4E1a (heIF4E1b [6]; human proteins): approximately 5 fold | Ratio Kas (h4E1a) to Kas (h4E1b) (heIF4E1b [6]): 0.17 | Kas + glycerol XeIF4E1a (XeIF4E1a [8]; 10% glycerol): 0.055 ± 0.021 μM^− 1 | Kas − glycerol XeIF4E1a (XeIF4E1a [8]): 0.031 ± 0.006 μM^− 1 | Ratio Kas (h4E1a) to Kas (X4E1a) (XeIF4E1a [9]): 0.87

Nc1nc2c(c(=O)[nH]1)[n+](Cc1ccc(Cl)cc1)cn2[C@@H]1O[C@H](COP(=O)([O-])O)[C@@H](O)[C@H]1O [p-Cl-bn^7GMP]
IC50 (in vitro translation): 51 µM
